Results published in PMC6707142, “Orthogonal monoterpenoid biosynthesis in yeast constructed on an isomeric substrate” (Nature Communications, 2019).

What was measured:
SeCamS = test system: T1, SeCamS; assay: GC-MS of hexane-extracted monoterpene products; type: biochemical, Solanum elaeagnifolium; settings: 20 mM MOPS pH 7.0, 20 mM MgCl2, 0.02 mM MnCl2, 30 °C, 1 h; read-out: KM^app
T1 construct: 6xHis-tagged, E. coli BL21(DE3), Ni-NTA purified
Source text: GC-MS of hexane-extracted monoterpene products on SeCamS

PtPinS = molecular target: T2, PtPinS (Pinus taeda, UniProt Q84KL3); assay: GC-MS product analysis in vitro; type: biochemical; settings: 20 mM MOPS pH 7.0, 20 mM MgCl2, 0.02 mM MnCl2, 30 °C, 1 h
T2 construct: gene PT30; lacking the transit peptide, 6xHis-tagged, E. coli BL21(DE3), Ni-NTA purified
T2 sequence (Q84KL3 49-628): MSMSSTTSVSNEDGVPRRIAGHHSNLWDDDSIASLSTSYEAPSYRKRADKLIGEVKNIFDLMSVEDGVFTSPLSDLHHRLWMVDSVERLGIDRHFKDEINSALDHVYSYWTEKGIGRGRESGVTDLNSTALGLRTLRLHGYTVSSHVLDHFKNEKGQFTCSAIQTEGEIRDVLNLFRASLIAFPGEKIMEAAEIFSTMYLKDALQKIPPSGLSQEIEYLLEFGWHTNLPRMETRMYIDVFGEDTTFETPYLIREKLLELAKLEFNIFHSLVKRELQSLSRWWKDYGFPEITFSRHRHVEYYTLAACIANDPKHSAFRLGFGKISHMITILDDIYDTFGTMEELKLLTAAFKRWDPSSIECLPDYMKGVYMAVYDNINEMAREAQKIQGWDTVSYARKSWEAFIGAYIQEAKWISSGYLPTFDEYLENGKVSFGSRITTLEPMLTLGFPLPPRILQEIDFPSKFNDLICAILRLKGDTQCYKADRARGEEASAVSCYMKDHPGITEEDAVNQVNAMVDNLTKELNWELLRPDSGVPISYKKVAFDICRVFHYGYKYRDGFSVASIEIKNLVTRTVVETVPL

SpSabS = molecular target: T3, SpSabS (Salvia pomifera, UniProt A6XH06); assay: GC-MS product analysis in vitro; type: biochemical; settings: 20 mM MOPS pH 7.0, 20 mM MgCl2, 0.02 mM MnCl2, 30 °C, 1 h
T3 construct: gene SabS1; 6xHis-tagged, E. coli BL21(DE3), Ni-NTA purified
T3 sequence (A6XH06 29-581): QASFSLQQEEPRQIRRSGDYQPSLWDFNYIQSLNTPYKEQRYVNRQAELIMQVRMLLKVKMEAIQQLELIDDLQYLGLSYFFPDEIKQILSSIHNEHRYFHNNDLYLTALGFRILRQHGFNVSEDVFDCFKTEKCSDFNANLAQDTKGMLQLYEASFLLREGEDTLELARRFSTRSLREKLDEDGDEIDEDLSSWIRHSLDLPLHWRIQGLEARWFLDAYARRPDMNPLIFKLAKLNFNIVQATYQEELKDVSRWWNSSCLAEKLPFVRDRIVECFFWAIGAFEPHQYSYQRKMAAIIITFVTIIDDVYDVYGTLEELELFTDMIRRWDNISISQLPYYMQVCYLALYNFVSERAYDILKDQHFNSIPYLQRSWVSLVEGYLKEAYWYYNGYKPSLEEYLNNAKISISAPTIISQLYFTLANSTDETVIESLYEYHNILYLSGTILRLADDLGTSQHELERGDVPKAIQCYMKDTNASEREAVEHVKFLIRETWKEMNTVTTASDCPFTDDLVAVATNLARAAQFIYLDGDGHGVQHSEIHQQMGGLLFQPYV

Row | Km (SeCamS) | SMILES | GC-MS product analysis in vitro (PtPinS) | GC-MS product analysis in vitro (SpSabS)
1 | 18.6 ± 2.77 µM | CC(C)=CCC/C(C)=C/COP(=O)(O)OP(=O)(O)O [GPP] |  | 
2 | 107 ± 12.5 µM | CC(C)=CCC/C(C)=C\COP(=O)(O)OP(=O)(O)O [NPP] | able to utilize NPP in in vitro assays with bacterially expressed enzymes | able to utilize NPP in in vitro assays with bacterially expressed enzymes
